Results published in PMC7395176, “Retromer stabilization results in neuroprotection in a model of Amyotrophic Lateral Sclerosis” (Nature Communications, 2020).

Tests used:
SOD1^G93A aggregates = experiment: Treatment of G93A mice from day 83 to day 103: motor performance, SOD1 aggregates (blue-native PAGE); assay type: in vivo; details: 10 mg/kg daily
Source text: SOD1 mutations increase its propensity to aggregate in cells. We checked whether compound 2a could reduce the accumulation of SOD1^G93A aggregates in vivo. Starting at postnatal day 83, we injected G93A mice and WT littermates daily with compound 2a. We scored motor performances in vehicle- and compound 2a-treated G93A mice until day 103. […] We resolved SC protein extracts by blue-native polyacrylamide gel electrophoresis, and probing them with anti-SOD1 antibodies we observed high molecular weight smears in G93A mice that were absent in WT litters. The intensity of such high MW entities was lowered in G93A mice treated with compound 2a (Supplementary Fig. 13b, c).
G93A mice and their WT litters were injected daily with vehicle or compound 2a (10 mg/kg, from day 83 to day 103). […] We incubated 250 µL of each extract with 100 mM Iodoacetamide (Sigma–Aldrich). […]
n=4 independent mice/group, data are collected from 1 experiment). […] Dividing black linesmark lanes cropped from the same filter;c, quantifications of the mutant forms of the SOD1 from mice treated with sham or with compound 2a (G93A-v: n=6 independent mice, G93A-2a: n=6 independent mice, data are derived from 2 independent experiments). […]

G93A mice = experiment: Daily treatment of G93A and WT mice, day 30 to day 100: tolerability, rotarod, histopathology; assay type: in vivo
Protocol: We administered compound 2a (10 mg/kg, i.p.) daily to G93A and WT littermates between day 30 and day 100. […] We next assessed the pathological degeneration of fibers in sciatic nerves of G93A mice treated with compound 2a. We observed axonal degeneration, with a substantial reduction of myelinated nerve fibers in vehicle-treated G93A mice (Fig. 5a, b)[39]. […] Using Luxol Fast Blue (LFB) to label lipoproteins of the myelin sheath, we analyzed myelination.
Mice were maintained under pathogen-free conditions at San Raffaele Hospital mouse facility (Milan, Italy). All efforts were made to minimize animal suffering and to reduce the number of mice used in accordance with the European Communities Council Directive of 24 November 1986 (86/609/EEC). The Ethics Review Committee approved experimental protocols according guidelines from the Italian Ministry of Health and from the Institutional Animal Care and Use Committee of the San Raffaele Scientific Institute (protocol number 704/2015PR). Transgenic mutant SOD1 mice carrying the SOD1^G93A allele (strain B6SJL-TgN[SOD1G93A]1GUR)[75] were purchased from Jackson laboratories, while C57BL/6J mice, used for breeding and experimental purposes, were purchased from Charles River (Italy). Both transgenic and WT mice had food and water freely available in the home-cage. The holding room was on a 12-h light–dark cycle, the temperature of the room was 22 ± 0.2 °C. Starting from day 30 we intraperitoneally injected compound 2a (10 mg/Kg) or vehicle in G93A mice as well as in C57BL/6J mice for 70 days. Additional experiments were performed injecting mice from day 83 to day 103. An operator blind to the treatment performed injections and manipulation of mice. At the day of the sacrifice, mice received an overdose of anesthetic drugs and they were perfused via vascular system with saline followed by 70–80 ml 4% paraformaldehyde (PF) in PBS, pH 7.2 (Sigma–Aldrich). Spinal cords were coronally sliced at ~6-mm thickness and postfixed in 4% PF in PBS, pH 7.2 for 12 h at +4 °C. Tissues were cryoprotected in PBS 1X/30% Sucrose (Sigma–Aldrich), embedded in OCT inclusion media and stored at −80 °C before processing. Lumbar spinal cords were 12-µm sectioned, labelled and digital images were acquired every 330 µm in a region encompassing 2.4 mm of the lumbar spinal cord. We determined numbers of mice by preliminary results or literature precedent.
Motor activity of mice receiving compound 2a or vehicle was assessed on 50-, 60-, 70-, 80-, 90-, and 100-days-old animals. Briefly, mice were trained 1 min on a static rotor and 1 min at constant speed (4 rpm) for two times and then we ran two trials performed over two consecutive days (one per day). Each trial consisted of 6-test sessions with 15 min interval between sessions. For each session, we placed mice on an accelerating rotor (4–40 rpm) and the latency to fall was recorded, with a maximum limit for individual animal set at 600 seconds.
Quantification of nerves degeneration was done on sciatic nerves obtained from saline-perfused mice. Tissues were fixed in 2% buffered glutaraldehyde (Sigma–Aldrich), postfixed in 1% osmium tetroxide and cut to obtain 1 µm thick sections. We stained sections with toluidine blue and specimens were blindly examined by light microscopy using ×40 objective. For each nerve, we merged images to obtain the entire nerve cross section. Five consecutive nonoverlapping semi-thin sections from each sample were analyzed with NHI-Image J software (US National Institutes of Health). Degenerating fibers were counted in the entire nerve cross section.
Quantification of myelin was done on sagittal sciatic nerves by Luxol fast blue (LFB). Briefly, nerve sections were incubated the ethanol series before receiving 0.1% LFB overnight at 60 °C. Sections were then incubated 5 min in 0.05% lithium carbonate before receiving the ethanol series and xylene. Bright field microcopy of nerves at ×63 was used for quantification. […]

Compound: NC(N)=N/N=C/c1cccc(/C=N/N=C(N)N)c1 [compound 2a, phenyl-1,3-bis-guanylhydrazone]
- motor deficits (latency to fall) (SOD1^G93A aggregates): general attenuation of motor deficits
- intensity of high MW SOD1 entities (blue-native PAGE) (SOD1^G93A aggregates; SC extracts): lowered
- distress or pain (G93A mice; 10 mg/kg i.p. daily, day 30 to day 100): did not observe distress or undesirable pain
- progression of motor deficits (latency to fall, rotarod) (G93A mice; G93A mice, 10 mg/kg i.p. daily, day 30 to day 100): significantly slowed down
- reduction of degenerating fibers in sciatic nerves (G93A mice; G93A mice, 10 mg/kg, day 100): ~30%
- MNs in ventral horns of lumbar SCs (G93A mice; G93A mice, 10 mg/kg, day 100, versus vehicle-treated G93A mice): more MNs
- total number of Iba1+ cells (G93A mice; SC ventral horn, G93A mice, 10 mg/kg, day 100, versus vehicle): Neither CD14 levels nor the total number of Iba1^+ cells changed
- body weight (G93A mice; WT and G93A mice, 10 mg/kg i.p. daily, day 30 to day 100): slight, but not significant reduction of body weight
- locomotion performances (G93A mice; WT mice, 10 mg/kg i.p. daily, rotarod): did not observe alterations of locomotion performances
- CD14 levels (G93A mice; lumbar SCs, G93A mice, 10 mg/kg, day 100, versus vehicle): Neither CD14 levels nor the total number of Iba1^+ cells changed
- integrity of myelin (MBP, NF-M labelling) (G93A mice; sciatic nerves, G93A mice): preserved the integrity of myelin
- demyelination (Luxol Fast Blue) (G93A mice; sciatic nerves, G93A mice, versus vehicle-treated G93A mice): substantial reduction of demyelination
